Here are results for eleven compounds from US9884839B2, “Inhibitors of 17Beta-hydroxysteroid dehydrogenases type 1 and type 2” (ElexoPharm GmbH, priority 2014, dated 2018).

Like-named read-outs stand apart in the source and are kept apart here.

The conditions of series [1]: human liver S9, 1 mg/mL; unit not given.
For series [2], the target named is T1, human 17β-HSD2 (Homo sapiens, UniProt P37059).
T1 construct: 17β-HSD2 was obtained from the microsomal fraction; from tissue; host or cells: human placenta, microsomal fraction
T1 sequence (P37059 1-387): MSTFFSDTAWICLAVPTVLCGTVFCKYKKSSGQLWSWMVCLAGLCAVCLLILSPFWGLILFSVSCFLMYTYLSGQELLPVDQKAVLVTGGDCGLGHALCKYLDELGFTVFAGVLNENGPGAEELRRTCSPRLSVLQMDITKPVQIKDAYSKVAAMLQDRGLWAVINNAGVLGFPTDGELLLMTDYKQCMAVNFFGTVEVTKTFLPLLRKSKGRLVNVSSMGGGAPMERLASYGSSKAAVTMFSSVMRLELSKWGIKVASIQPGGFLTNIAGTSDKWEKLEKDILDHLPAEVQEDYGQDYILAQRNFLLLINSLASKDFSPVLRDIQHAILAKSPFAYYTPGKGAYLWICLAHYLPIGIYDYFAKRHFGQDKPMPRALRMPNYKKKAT
Put plainly: Inhibition of human 17β-HSD2 (conversion of [3H]-E2 to E1). The class given is biochemical. The conditions noted are these: read-out: IC50 [nM] h17β-HSD2.

The target of series [3] is T2, mouse 17β-HSD2 (Mus musculus, UniProt P51658).
T2 construct: The pellet fractions containing the microsomal 17β-HSD2 were used for the determination of E1 formation; from tissue; host or cells: mouse liver, microsomal fraction
T2 sequence (P51658 1-381): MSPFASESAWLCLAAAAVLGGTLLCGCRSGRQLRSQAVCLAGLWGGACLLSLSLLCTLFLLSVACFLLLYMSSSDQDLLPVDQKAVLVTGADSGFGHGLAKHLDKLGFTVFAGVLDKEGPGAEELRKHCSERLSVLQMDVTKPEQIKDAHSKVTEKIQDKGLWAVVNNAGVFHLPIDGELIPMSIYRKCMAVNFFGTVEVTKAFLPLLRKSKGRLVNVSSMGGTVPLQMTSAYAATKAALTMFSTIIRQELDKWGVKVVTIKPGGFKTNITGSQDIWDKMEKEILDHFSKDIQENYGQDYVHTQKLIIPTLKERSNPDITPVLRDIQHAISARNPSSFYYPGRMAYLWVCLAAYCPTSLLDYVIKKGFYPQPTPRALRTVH
The series is described as follows: Inhibition of mouse 17β-HSD2 (liver microsomal fraction). The conditions noted are these: for inhibition at 1 µM: read-out: Inhibition @ 1 μM m17β-HSD2; for IC50: read-out: IC50 m17β-HSD2. The class given is biochemical. On the technique in general: Liver microsomes are vesicles of endoplasmic reticulum, rich in cytochrome P450 enzymes.

The nature of series [4]: in vitro. The conditions noted are these: human, pooled human liver S9 fraction.
Series [5] has as its target T3, human 17β-HSD1 (Homo sapiens, UniProt P14061).
T3 construct: For the partial purification of 17β-HSD1, the cytosolic fraction was precipitated with ammonium sulfate; from tissue; host or cells: human placenta, cytosolic fraction, ammonium sulfate precipitate
T3 sequence (P14061 1-328): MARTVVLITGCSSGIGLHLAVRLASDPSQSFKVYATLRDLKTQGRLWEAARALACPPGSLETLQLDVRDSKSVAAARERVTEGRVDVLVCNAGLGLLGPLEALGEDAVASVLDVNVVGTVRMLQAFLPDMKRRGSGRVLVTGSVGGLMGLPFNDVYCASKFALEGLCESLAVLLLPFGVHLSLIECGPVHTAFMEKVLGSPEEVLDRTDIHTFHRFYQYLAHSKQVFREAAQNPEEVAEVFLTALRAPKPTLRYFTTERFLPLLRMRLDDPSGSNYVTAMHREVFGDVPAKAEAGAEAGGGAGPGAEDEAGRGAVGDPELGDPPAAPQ
Put plainly: Inhibition of human 17β-HSD1 (conversion of [3H]-E1 to E2, HPLC radioflow detection). The class given is biochemical.

Series [6] addresses T4, mouse 17β-HSD1 (Mus musculus, UniProt P51656).
T4 construct: made in house; host or cells: HEK293 cells, transient transfection; 1,000 g supernatant of the cell lysate
T4 sequence (P51656 1-344): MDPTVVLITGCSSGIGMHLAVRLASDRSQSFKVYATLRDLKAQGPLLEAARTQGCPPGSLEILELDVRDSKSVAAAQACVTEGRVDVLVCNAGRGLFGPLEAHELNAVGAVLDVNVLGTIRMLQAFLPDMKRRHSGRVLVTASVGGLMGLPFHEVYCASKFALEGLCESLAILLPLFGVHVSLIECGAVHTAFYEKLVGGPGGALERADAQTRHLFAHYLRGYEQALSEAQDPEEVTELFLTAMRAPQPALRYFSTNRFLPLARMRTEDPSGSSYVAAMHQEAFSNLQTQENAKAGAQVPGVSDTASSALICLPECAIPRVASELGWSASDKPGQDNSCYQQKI
Put plainly: Inhibition of mouse 17β-HSD1 (recombinant, HEK293 lysate). The class given is biochemical.

In series [7] the target is T5, rat 17β-HSD1 (Rattus norvegicus, UniProt P51657).
T5 construct: made in house; host or cells: HEK293 cells, transient transfection; 1,000 g supernatant of the cell lysate
T5 sequence (P51657 1-344): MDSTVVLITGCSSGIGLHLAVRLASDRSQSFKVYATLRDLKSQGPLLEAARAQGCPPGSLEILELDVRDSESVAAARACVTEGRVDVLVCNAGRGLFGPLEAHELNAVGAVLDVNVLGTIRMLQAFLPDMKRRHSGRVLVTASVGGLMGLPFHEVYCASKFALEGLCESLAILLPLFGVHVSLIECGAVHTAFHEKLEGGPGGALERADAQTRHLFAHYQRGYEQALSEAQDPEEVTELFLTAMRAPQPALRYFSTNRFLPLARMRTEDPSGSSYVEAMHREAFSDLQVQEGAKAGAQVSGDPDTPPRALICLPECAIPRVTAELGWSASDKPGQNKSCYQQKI
Put plainly: Inhibition of rat 17β-HSD1 (recombinant, HEK293 lysate). The class given is biochemical. The conditions noted are these: read-out: % Inhibition r17β-HSD1; for inhibition at 5 µM: Cmpd conc. 5000 nM; for inhibition at […]: Cmpd conc. 250 nM.

Series [8] deals with T6, rat 17β-HSD2 (Rattus norvegicus, UniProt Q62730).
T6 construct: The pellet fractions containing the microsomal 17β-HSD2 were used for the determination of E1 formation; from tissue; host or cells: rat liver, microsomal fraction
T6 sequence (Q62730 1-381): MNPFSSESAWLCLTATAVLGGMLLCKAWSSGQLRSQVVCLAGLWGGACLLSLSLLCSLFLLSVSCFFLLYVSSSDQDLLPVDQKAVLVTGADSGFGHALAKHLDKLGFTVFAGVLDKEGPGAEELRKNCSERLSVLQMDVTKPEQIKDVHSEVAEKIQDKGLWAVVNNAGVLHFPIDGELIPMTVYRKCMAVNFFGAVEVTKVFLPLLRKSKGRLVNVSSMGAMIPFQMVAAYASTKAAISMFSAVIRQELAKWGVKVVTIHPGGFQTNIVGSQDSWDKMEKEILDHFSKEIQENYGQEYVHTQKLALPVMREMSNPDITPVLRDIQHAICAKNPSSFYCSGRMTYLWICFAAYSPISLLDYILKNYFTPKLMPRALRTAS
The series is described as follows: Inhibition of rat 17β-HSD2 (liver microsomal fraction). The class given is biochemical. The conditions noted are these: read-out: % Inhibition r17β-HSD2.

The mark [9] stands for this setting: human placental cytosolic enzyme, E1 500 nM, NADH, Tables 1, 4-11, read-out: IC50 [nM] h17β-HSD1.
Setting [10] is: read-out: Inhibition @ 1 μM m17β-HSD1.
[11] abbreviates: read-out: % inhibition m17β-HSD1 @ 1 μM.

Usually IC50 stands for the concentration that inhibits the measured activity by half. As a reminder, the inhibition is the share of the control response that was lost under treatment. A word on the half-life: it is the time in which the quantity being followed falls by half. Lower therefore signals rapid decline.

On to `O=C(c1ccc(-c2cccc(Cl)c2)s1)c1c(F)ccc(O)c1F` [Compound 11, [5-(3-Chloro-phenyl)-thiophen-2-yl]-(2,6-difluoro-3-hydroxy-phenyl)-methanone], for which the CLint in series [1] was 160.7. Further, the results for the 50% inhibitory concentration (IC50) in series [2] and in series [5] (setting [9]) were 10 nM and 1.2 nM, respectively. Further, the inhibition at 1 µM is 75% in series [3] and 60% in series [6] (setting [10]). The compound also displayed a half-life at 1 µM in series [4] of 4.3 min.

As for `COc1ccc(-c2ccc(C(=O)c3c(F)ccc(O)c3F)s2)cc1Cl` [Compound 12, [5-(3-Chloro-4-methoxy-phenyl)-thiophen-2-yl]-(2,6-difluoro-3-hydroxy-phenyl)-methanone], the CLint in series [1] is given as 149.6. In addition, the IC50 in series [2] was found to be 11 nM; in series [5] (setting [9]), 1.3 nM. Also, the inhibition at 1 µM in series [3] turned out to be 64%; in series [6] (setting [10]), 40%. In series [4], this compound registered a half-life at 1 µM of 4.6 min.

`COc1c(Cl)cc(-c2ccc(C(=O)c3c(F)ccc(O)c3F)s2)cc1Cl` [Compound 15, [5-(3,5-Dichloro-4-methoxy-phenyl)-thiophen-2-yl]-(2,6-difluoro-3-hydroxy-phen-yl)-methanone] yielded a CLint in series [1] of 38.3. Besides, the IC50 in series [2] amounted to 41 nM; in series [3] (mouse liver microsomal fraction, E2 10 nM, NAD+) it was 550 nM; in series [5] (setting [9]), 0.6 nM. Also, the half-life at 1 µM in series [4] was found to be 18.1 min. Also, in series [6] (setting [10]), the inhibition at 1 µM was found to be 43%.

As for `Cc1cc(C(=O)c2c(F)ccc(O)c2F)sc1-c1ccc(O)c(Cl)c1` [Compound 21, [5-(3-Chloro-4-hydroxy-phenyl)-4-methyl-thiophen-2-yl]-(2,6-difluoro-3-hydroxy-phenyl)-methanone], the CLint in series [1] worked out at 241.4. For the same compound, the IC50 in series [2] came to 11 nM; in series [3], 78 nM; in series [5] (setting [9]) it was 0.8 nM. For the same compound, the half-life at 1 µM in series [4] worked out at 2.9 min. Moreover, the inhibition at 1 µM in series [6] (setting [10]) worked out at 38%.

Take `O=C(c1ccc(-c2cc(Cl)c(O)c(Cl)c2)s1)c1c(F)ccc(O)c1F` [Compound 23, [5-(3,5-Dichloro-4-hydroxy-phenyl)-thiophen-2-yl]-(2,6-difluoro-3-hydroxy-phen-yl)-methanone]: in series [1], the CLint came to 5.4. Besides, the IC50 worked out at 39 nM in series [2], 209 nM in series [3] and 2.4 nM in series [5] (read-out: IC50 [nM] h17β-HSD1). Besides, the half-life at 1 µM in series [4] is 129 min. In series [7], the inhibition at 5 µM is 59%. The inhibition at 1 µM in series [6] (setting [10]) amounted to 23%.

In series [1], `N#Cc1cc(-c2ccc(C(=O)c3c(F)ccc(O)c3F)s2)ccc1O` [Compound 25, 5-[5-(2,6-Difluoro-3-hydroxy-benzoyl)-thiophen-2-yl]-2-hydroxy-benzonitrile] had a CLint of 64.5. For the same compound, the IC50 in series [2] stood at 29 nM; in series [5] (setting [9]), 3.3 nM. Moreover, the results for the inhibition at 1 µM in series [3] and in series [6] (setting [10]) were 40% and 23%, respectively. The same compound had a half-life at 1 µM in series [4] of 10.7 min.

For the compound `O=C(c1ccc(-c2cccc(NS(=O)(=O)c3ccc(Br)cc3OC(F)(F)F)c2)s1)c1cc(F)c(F)c(O)c1F` [Compound 36, 4-Bromo-N-{3-[5-(2,4,5-trifluoro-3-hydroxybenzoyl)thiophen-2-yl]phenyl}-2-trifluoromethoxybenzenesulfonamide], the inhibition at […] in series [8] was 100%; in series [7] it was 50%. The same compound yielded an IC50 in series [5] of 2.4 nM. The inhibition at 1 µM in series [6] (setting [11]) and in series [6] (setting [10]) was 68% each time.

For `O=C(c1ccc(-c2cccc(NS(=O)(=O)c3ccccc3C(F)(F)F)c2)s1)c1cc(F)c(F)c(O)c1F` [Compound 38, N-{3-[5-(2,4,5-Trifluoro-3-hydroxybenzoyl)thiophen-2-yl]phenyl}-2-trifluoromethylbenzenesulfonamide], the values for the inhibition at […] in series [8] and in series [7] were 96% and 41%, respectively. The IC50 in series [5] was found to be 4.8 nM. Also, the inhibition at 1 µM in series [6] (setting [11]) and in series [6] (setting [10]) was 81% in each case.

In turn, `O=C(c1ccc(-c2ccc(O)c(Cl)c2)s1)c1cc(F)c(F)c(O)c1F` [Compound 41, (5-(3-Chloro-4-hydroxyphenyl)thiophen-2-yl)(2,4,5-trifluoro-3-hydroxyphenyl)methanone] returned a CLint in series [1] of 61.5. Also, the figures for the IC50 in series [2] and in series [5] (setting [9]) were 3.1 nM and 1.1 nM, respectively. Also, the inhibition at 1 µM in series [3] turned out to be 89%; in series [6] (setting [10]), 33%. In addition, the half-life at 1 µM in series [4] amounted to 11.3 min.

In turn, `Cc1cc(-c2ccc(C(=O)c3cc(F)c(F)c(O)c3F)s2)cc(C)c1O` [Compound 50, (5-(4-Hydroxy-3,5-dimethylphenyl)thiophen-2-yl)(2,4,5-trifluoro-3-hydroxyphenyl)methanone] returned a CLint in series [1] of 18.2. Moreover, the half-maximal inhibitory concentration (IC50) in series [2] worked out at 1.3 nM; in series [3], 100 nM; in series [5] (setting [9]), 0.9 nM; in series [6] (recombinant mouse enzyme, E1 10 nM, NADPH, read-out: IC50 m17β-HSD1) it was 650 nM. For the same compound, the half-life at 1 µM in series [4] is 38 min.

In the case of `Cc1cc(-c2ccc(C(=O)c3cccc(O)c3)s2)ccc1O` [Compound F1, reference compound], in series [1], the CLint is 193.8. Moreover, the IC50 was found to be 384 nM in series [2] and 8 nM in series [5] (read-out: IC50 [nM] h17β-HSD1). In addition, the inhibition at 1 µM in series [3] was found to be 22%; in series [6] (setting [10]), 18%. This compound also yielded a half-life at 1 µM in series [4] of 3.6 min. The inhibition at 5 µM in series [7] was found to be 48%.
